Data as given in patent US9925189B2, “Heterocyclic receptor agonists for the treatment of diabetes and metabolic disorders” (CymaBay Therapeutics, Inc., priority 2006, dated 2018).

molecular target: T1, IC-GPCR2 (Homo sapiens, UniProt Q8TDV5, S309L); assay: Stimulation of cAMP in CHO cells stably expressing IC-GPCR2 (HTRF cAMP assay); format: cell-based; details: 0.5 h, 30 minutes, IC-GPCR2 stably expressing CHO cells, read-out: Activity at 10 uM (% change in FRET signal from DMSO control)
T1 construct: expressed in transfected cells
T1 sequence (Q8TDV5 1-335 S309L): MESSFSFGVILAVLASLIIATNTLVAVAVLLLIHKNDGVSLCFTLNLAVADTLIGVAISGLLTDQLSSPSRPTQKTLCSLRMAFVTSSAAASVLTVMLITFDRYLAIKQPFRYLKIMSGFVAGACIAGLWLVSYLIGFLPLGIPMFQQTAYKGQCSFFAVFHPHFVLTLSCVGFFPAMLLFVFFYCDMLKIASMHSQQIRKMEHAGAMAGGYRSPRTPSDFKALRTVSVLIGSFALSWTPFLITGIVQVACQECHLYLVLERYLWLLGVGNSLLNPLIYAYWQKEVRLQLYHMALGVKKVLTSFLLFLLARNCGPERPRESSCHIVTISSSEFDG
Procedure, shortened: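 CHO cells stably expressing IC-GPCR2, plated at 17500 cells/well, treated next day for 30 min in Ham's F12 with compounds at 6–8 concentrations from 0.00003 to 10 μM; parental CHO cells also screened. Intracellular cAMP read by HTRF competitive immunoassay (665/620 nm ratio). Activity given as % FRET change from DMSO control.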

Compared with `CCOC(=O)c1ccc(OCc2csc(C3CCN(C(=O)OC(C)(C)C)CC3)n2)cc1` [Example 129, 4-[4-(4-Ethoxycarbonyl-phenoxymethyl)-thiazol-2-yl]-piperidine-1-carboxylic acid tert-butyl ester], `CC(C)(C)OC(=O)N1CCC(c2nc(COc3ccc(C(=O)O)cc3)cs2)CC1` [Example 131, 4-[4-(4-Carboxy-phenoxymethyl)-thiazol-2-yl]-piperidine-1-carboxylic acid tert-butyl ester] is lower in activation at 10 µM: 43% for the first, 24% for the second.

Compared with `CC(C)(C)OC(=O)Nc1ccc(OCc2csc(C3CCN(C(=O)OC(C)(C)C)CC3)n2)cc1` [Example 130, 4-[4-(4-tert-Butoxycarbonylamino-phenoxymethyl)-thiazol-2-yl]-piperidine-1-carboxylic acid tert-butyl ester], `CC(C)(C)OC(=O)N1CCC(c2nc(COc3ccc(Br)cc3)cs2)CC1` [Example 140, 4-[4-(4-Bromo-phenoxymethyl)-thiazol-2-yl]-piperidine-1-carboxylic acid tert-butyl ester] is higher in activation at 10 µM: 53% for the first, 62% for the second.

First: CC(C)(C)OC(=O)N1CCC(c2nc(COc3c(F)cc(S(C)(=O)=O)cc3F)cs2)CC1 [Example 132, 4-[4-(2,6-Difluoro-4-methanesulfonyl-phenoxymethyl)-thiazol-2-yl]-piperidine-1-carboxylic acid tert-butyl ester]
Second: CC(C)OC(=O)N1CCC(c2nc(COc3ccc(S(C)(=O)=O)cc3F)cs2)CC1 [Example 148, 4-[4-(2-Fluoro-4-methanesulfonyl-phenoxymethyl)-thiazol-2-yl]-piperidine-1-carboxylic acid isopropyl ester]
The activation at 10 µM of the first is lower: 70% for the first, 74% for the second.

Going from `CC(C)(C)OC(=O)N1CCC(c2nc(COc3ccc(N4CCOCC4)cc3)cs2)CC1` [Example 133, 4-[4-(4-Morpholin-4-yl-phenoxymethyl)-thiazol-2-yl]-piperidine-1-carboxylic acid tert-butyl ester] to `CC(C)(C)OC(=O)N1CCC(c2nc(COc3ccc(SC(F)(F)F)cc3)cs2)CC1` [Example 134, 4-[4-(4-Trifluoromethylsulfanyl-phenoxymethyl)-thiazol-2-yl]-piperidine-1-carboxylic acid tert-butyl ester], the activation at 10 µM rises from 61% to 68%.

Going from `CC(C)(C)OC(=O)N1CCC(c2nc(COc3ccc(OCc4ccccc4)cc3)cs2)CC1` [Example 135, 4-[4-(4-Benzyloxy-phenoxymethyl)-thiazol-2-yl]-piperidine-1-carboxylic acid tert-butyl ester] to `CC(C)(C)OC(=O)N1CCC(c2nc(COc3ccccc3)cs2)CC1` [Example 137, 4-(4-Phenoxymethyl-thiazol-2-yl)-piperidine-1-carboxylic acid tert-butyl ester], the activation at 10 µM falls from 66% to 35%.

Going from `CC(C)(C)OC(=O)N1CCC(c2nc(CNc3ccc(S(C)(=O)=O)cc3)cs2)CC1` [Example 138, 4-{4-[(4-Methanesulfonyl-phenylamino)-methyl]-thiazol-2-yl}-piperidine-1-carboxylic acid tert-butyl ester] to `CC(C)(C)OC(=O)N1CCC(c2nc(CNCc3ccc(S(C)(=O)=O)cc3)cs2)CC1` [Example 142, 4-{4-[(4-Methanesulfonyl-benzylamino)-methyl]-thiazol-2-yl}-piperidine-1-carboxylic acid tert-butyl ester], the activation at 10 µM rises from 64% to 78%.

Going from `CCc1cnc(N2CCC(c3nc(CNc4ccc(S(C)(=O)=O)cc4F)cs3)CC2)nc1` [Example 141, {2-[1-(5-Ethyl-pyrimidin-2-yl)-piperidin-4-yl]-thiazol-4-ylmethyl}-(2-fluoro-4-methanesulfonyl-phenyl)-amine] to `CCc1cnc(N2CCC(c3nc(CNc4ccc(-n5cnnn5)cc4)cs3)CC2)nc1` [Example 161, {2-[1-(5-Ethyl-pyrimidin-2-yl)-piperidin-4-yl]-thiazol-4-ylmethyl}-(4-tetrazol-1-yl-phenyl)-amine], the activation at 10 µM rises from 64% to 79%.

Compared with `C[C@H](NCc1csc(C2CCN(C(=O)OC(C)(C)C)CC2)n1)c1ccc(S(C)(=O)=O)cc1` [Example 143, 4-(4-{[1-(4-Methanesulfonyl-phenyl)-ethylamino]-methyl}-thiazol-2-yl)-piperidine-1-carboxylic acid tert-butyl ester], `CC(C)(C)OCC(=O)N1CCC(c2nc(COc3ccc(-n4cnnn4)cc3)cs2)CC1` [Example 157, 2-tert-Butoxy-1-{4-[4-(4-tetrazol-1-yl-phenoxymethyl)-thiazol-2-yl]-piperidin-1-yl}-ethanone] is lower in activation at 10 µM: 63% for the first, 57% for the second.

Compared with `O=C(OC1CCCCC1)N1CCC(c2nc(COc3ccc(-n4cnnn4)cc3)cs2)CC1` [Example 147, 4-[4-(4-Tetrazol-1-yl-phenoxymethyl)-thiazol-2-yl]-piperidine-1-carboxylic acid cyclohexyl ester], `CCCCCCCOC(=O)N1CCC(c2nc(COc3ccc(-n4cnnn4)cc3)cs2)CC1` [Example 155, 4-[4-(4-Tetrazol-1-yl-phenoxymethyl)-thiazol-2-yl]-piperidine-1-carboxylic acid heptyl ester] is higher in activation at 10 µM: 56% for the first, 73% for the second.

First: CCCN1CCC(c2nc(COc3ccc(-n4cnnn4)cc3)cs2)CC1 [Example 150, 1-Propyl-4-[4-(4-tetrazol-1-yl-phenoxymethyl)-thiazol-2-yl]-piperidine]
Second: CCCCN1CCC(c2nc(COc3ccc(-n4cnnn4)cc3)cs2)CC1 [Example 152, 1-Butyl-4-[4-(4-tetrazol-1-yl-phenoxymethyl)-thiazol-2-yl]-piperidine]
The activation at 10 µM of the first is lower: 32% for the first, 68% for the second.

Compared with `CC(C)(C)C(=O)CN1CCC(c2nc(COc3ccc(-n4cnnn4)cc3)cs2)CC1` [Example 151, 3,3-Dimethyl-1-{4-[4-(4-tetrazol-1-yl-phenoxymethyl)-thiazol-2-yl]-piperidin-1-yl}-butan-2-one], `CS(=O)(=O)N1CCC(c2nc(COc3ccc(-n4cnnn4)cc3)cs2)CC1` [Example 154, 1-Methanesulfonyl-4-[4-(4-tetrazol-1-yl-phenoxymethyl)-thiazol-2-yl]-piperidine] is higher in activation at 10 µM: 54% for the first, 66% for the second.

Compared with `O=C(CN1CCC(c2nc(COc3ccc(-n4cnnn4)cc3)cs2)CC1)c1ccc(OC(F)(F)F)cc1` [Example 153, 2-{4-[4-(4-Tetrazol-1-yl-phenoxymethyl)-thiazol-2-yl]-piperidin-1-yl}-1-(4-trifluoromethoxy-phenyl)-ethanone], `Cc1ccc(S(=O)(=O)N2CCC(c3nc(COc4ccc(-n5cnnn5)cc4)cs3)CC2)cc1` [Example 156, 4-[4-(4-Tetrazol-1-yl-phenoxymethyl)-thiazol-2-yl]-1-(toluene-4-sulfonyl)-piperidine] is lower in activation at 10 µM: 44% for the first, 6% for the second.

First: CCc1cnc(N2CCC(c3nc(COc4c(F)cc(-n5cnnn5)cc4F)cs3)CC2)nc1 [Example 159, 2-{4-[4-(2,6-Difluoro-4-tetrazol-1-yl-phenoxymethyl)-thiazol-2-yl]-piperidin-1-yl}-5-ethyl-pyrimidine]
Second: CCc1cnc(N2CCC(c3nc(COc4ccc(-n5cccc5)cc4)cs3)CC2)nc1 [Example 160, 5-Ethyl-2-{4-[4-(4-pyrrol-1-yl-phenoxymethyl)-thiazol-2-yl]-piperidin-1-yl}-pyrimidine]
The activation at 10 µM of the first is higher: 78% for the first, 77% for the second.
